Assay results: ChEMBL document CHEMBL5727632, “Substituted 1H-imidazo[4,5-b]pyridin-2(3H)-ones and their use as GluN2B receptor modulators” (2020)

Biological target: Glutamate receptor ionotropic, NMDA 2B (Homo sapiens, UniProt Q05586+Q13224)
Assay: Standard cell-based calcium flux assay: NMDA receptors are ion channels that are highly permeable to Ca2+ ions, rendering it possible to monitor NMDA receptor function using cell-based calcium flux assay. In this assay, co-agonists glutamate and glycine are added to cells heterologously expressing human GluN1/GluN2B NMDA receptors to initiate cellular Ca2+ influx. The time course of the changes in intracellular calcium is measured using a fluorescent dye and a FLIPR (Fluorometric Imaging Plate Reader) device.Twenty four hours before measurements, the expression of the NMDA receptors in the stable cell line is induced with Tet-On inducible system in the presence of a non-selective NMDA receptor blocker. On the day of the experiment, cell culture media is carefully washed and the cells are loaded with Calcium 5 Dye Kit (Molecular Devices) in dye loading buffer containing 137 mM NaCl, 4 mM KCl, 2 mM CaCl2, 0.5 mM MgCl2 (standard assay) or 1.5 mM MgCl2 (HTS assay), 10 mM HEPES and 5 mM D-glucose; pH 7.4. […]

Sequence of Glutamate receptor ionotropic, NMDA 2B (Q13224 whole entry, one chain of several): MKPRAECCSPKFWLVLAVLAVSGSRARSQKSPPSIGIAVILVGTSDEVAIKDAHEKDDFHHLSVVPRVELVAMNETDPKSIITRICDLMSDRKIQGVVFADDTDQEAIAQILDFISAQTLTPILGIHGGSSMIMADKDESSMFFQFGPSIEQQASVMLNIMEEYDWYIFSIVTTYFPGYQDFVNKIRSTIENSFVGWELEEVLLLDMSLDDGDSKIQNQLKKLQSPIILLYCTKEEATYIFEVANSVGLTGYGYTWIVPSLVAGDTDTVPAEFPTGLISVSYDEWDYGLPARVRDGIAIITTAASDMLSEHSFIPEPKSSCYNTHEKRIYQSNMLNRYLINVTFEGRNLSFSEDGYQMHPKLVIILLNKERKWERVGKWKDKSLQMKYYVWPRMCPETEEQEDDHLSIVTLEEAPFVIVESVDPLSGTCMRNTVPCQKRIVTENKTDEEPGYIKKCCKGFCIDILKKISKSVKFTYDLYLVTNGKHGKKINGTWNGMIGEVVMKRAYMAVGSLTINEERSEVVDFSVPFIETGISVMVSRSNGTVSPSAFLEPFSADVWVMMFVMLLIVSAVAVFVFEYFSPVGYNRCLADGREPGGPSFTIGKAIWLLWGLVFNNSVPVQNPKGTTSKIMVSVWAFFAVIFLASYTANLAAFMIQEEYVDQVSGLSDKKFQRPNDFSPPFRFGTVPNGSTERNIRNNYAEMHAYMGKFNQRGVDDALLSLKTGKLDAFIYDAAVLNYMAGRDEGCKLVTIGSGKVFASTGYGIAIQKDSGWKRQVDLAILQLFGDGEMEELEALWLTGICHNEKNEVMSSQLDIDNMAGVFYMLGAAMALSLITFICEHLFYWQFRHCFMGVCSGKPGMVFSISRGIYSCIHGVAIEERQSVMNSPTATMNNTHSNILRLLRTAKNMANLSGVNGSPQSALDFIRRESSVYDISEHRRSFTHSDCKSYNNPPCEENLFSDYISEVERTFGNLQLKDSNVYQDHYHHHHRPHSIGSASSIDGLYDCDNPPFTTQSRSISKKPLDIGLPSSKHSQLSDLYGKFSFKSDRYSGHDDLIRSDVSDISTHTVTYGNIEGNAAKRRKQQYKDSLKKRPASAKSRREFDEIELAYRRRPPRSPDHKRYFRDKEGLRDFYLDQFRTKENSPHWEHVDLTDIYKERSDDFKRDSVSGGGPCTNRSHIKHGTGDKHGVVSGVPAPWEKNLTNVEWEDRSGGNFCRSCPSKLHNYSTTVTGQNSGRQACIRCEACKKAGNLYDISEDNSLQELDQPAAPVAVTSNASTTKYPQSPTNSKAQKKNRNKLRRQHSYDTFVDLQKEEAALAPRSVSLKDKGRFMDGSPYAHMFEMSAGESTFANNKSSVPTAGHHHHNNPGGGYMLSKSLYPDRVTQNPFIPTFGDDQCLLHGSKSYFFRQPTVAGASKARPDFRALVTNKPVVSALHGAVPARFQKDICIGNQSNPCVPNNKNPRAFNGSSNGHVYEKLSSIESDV

- IC50: 1.29 µM
SMILES: Cn1c(=O)n(CC(=O)N2CCC2)c2cc(-c3cc(OCCF)cc(C(F)(F)F)c3)cnc21
